In EP3521435A1, “A HIGH STRINGENCY SELECTION SYSTEM FOR PROTEIN EXPRESSION IN PROLINE-AUXOTROPHIC CELLS” (Bayer AG, priority 2018, dated 2019):

Tested on: CHO-K1 cells
Assay: Batch fermentation in shake flasks of human IgG1 expressing stable cell populations (Poros A-HPLC titer, viable cell density, viability)
Type: cell-based, Chinese hamster
Details: pJF1576; for Productivity profile: human IgG1
Experimental: To efficiently test the impact of different procedures on improving selection stringency, experimental testing in stable cell populations was performed. As test molecules, enhanced green fluorescent protein (GFP) as well as a human IgG1 were chosen. CHO-K1 cells adapted to growth in suspension in defined medium were obtained from SAFC and cultivated in EX-CELL CD CHO Fusion medium (SAFC 14365C). Custom-made EX-CELL CD CHO Fusion medium without L-Proline (Pro) and without L-Ornithine (Orn) ("proline-free medium") was obtained from SAFC. The expression vector system was based on modified versions of "CET 1019 AS-puro-SceI" and "CET 1019 AD-puro-SceI" for GFP and human IgG1, respectively, from Merck-Millipore, containing the Puromycin selection marker (Puromycin N-acetyl-transferase) known to exert a high selection stringency. To minimize variations in cell populations derived from using different transfections or different vectors, the first series of experiments were conducted using vectors into which a P5CS expression cassette was cloned upstream of a UCOE element, in addition to the Puromycin selection marker present downstream of a gene of interest. This way, it was possible to pool different transfections using the same vector to obtain a common starting point, and split the mixture according to different selection conditions, minimizing any variations that are not due to selection conditions themselves. Expression of long and short isoform of murine P5CS (Protein: Delta-1-pyrroline-5-carboxylate synthase; Gene: Aldh18a1; UniProtKB accession number: Q9Z110-1 & Q9Z110-2) was driven by a SV40 promoter. A SV40 polyadenylation sequence was used at the 3' end of the gene. More details can be found in Table 1. Typically, CHO cells were cultivated in EX-CELL CD CHO Fusion medium containing 6 mM GlutaMAX (Thermo Fisher, 35050-38) ("CD-Fusion medium") at 37 °C with 5% CO2. Cells were grown to logarithmic phase under shaking conditions for transfections. 1e7 cells/cuvette were transfected using nucleofection (Amaxa Nucleofector II, following the manufacturer's recommendations) with 5 µg of linearized DNA. After transfection, cells were taken up in 1 ml medium and transferred into 1 well of a 6 well microtiter plate (MTP) already containing 1 ml medium. The cells were incubated for 24 h without shaking, after which 9 ml medium were added and cells were washed (either in standard or proline-free medium). Multiple transfections were pooled, if applicable. Cells were adjusted to 2e5 viable cells/ml and 10 ml were transferred to T-25 flasks. Reference cell populations were selected using 10 µg/ml Puromycin in CD-Fusion medium. For P5CS-based selection, EX-CELL CD CHO Fusion medium (custom-made, SAFC) containing 6 mM GlutaMAX without proline and without ornithine was used ("proline-free" or "CD-Fusion w/o Pro" medium), with or without additional selection pressure.
Cell viability of the different populations was monitored over time. As soon as cell populations appeared to recover from selection pressure, cells were transferred to Shake Flask or TubeSpins for expansion in suspension under shaking conditions. Subsequently, stable cell populations transfected with IgG were seeded at 2e5 viable cells/ml for batch fermentation without selection pressure (i.e. standard CD-Fusion medium containing proline and no other selective agents). The cells were cultivated for 5-10 days, viable cell densities and productivity were monitored over time. IgG titers were determined using Poros A-HPLC method. Typically, final batch titers were recorded at a time point at which majority of cultures had around 70% viability. Stable cell populations transfected with GFP vector were subjected to analysis by flow cytometry using Guava easyCyte 8HT Benchtop Flow Cytometer (Millipore). 250 µl of cell culture were transferred to 96 MTP and washed with PBS. Dead cells were excluded from analysis using propidium iodide (PI). […]

[1] = Day 4 after inoculation, selected in CD-Fusion w/o Pro + 0.4 mM DHP, non-selecting conditions
[2] = Day 5 after inoculation, selected in CD-Fusion w/o Pro + 0.05 mM DHP, selective conditions
[3] = Day 5 after inoculation, selected in CD-Fusion w/o Pro + 0.1 mM DHP, selective conditions
[4] = Day 5 after inoculation, selected in CD-Fusion w/o Pro + 0.2 mM DHP, selective conditions
[5] = Day 5 after inoculation, selected in CD-Fusion w/o Pro + 0.4 mM DHP, selective conditions
[6] = Day 7 after inoculation, selected in CD-Fusion w/o Pro + 0.05 mM DHP, non-selecting conditions
[7] = Day 7 after inoculation, selected in CD-Fusion w/o Pro + 0.05 mM DHP, selective conditions
[8] = Day 7 after inoculation, selected in CD-Fusion w/o Pro + 0.1 mM DHP, non-selecting conditions
[9] = Day 7 after inoculation, selected in CD-Fusion w/o Pro + 0.1 mM DHP, selective conditions
[10] = Day 7 after inoculation, selected in CD-Fusion w/o Pro + 0.2 mM DHP, non-selecting conditions
[11] = Day 7 after inoculation, selected in CD-Fusion w/o Pro + 0.2 mM DHP, selective conditions
[12] = Day 7 after inoculation, selected in CD-Fusion w/o Pro + 0.4 mM DHP, non-selecting conditions
[13] = Day 7 after inoculation, selected in CD-Fusion w/o Pro + 0.4 mM DHP, selective conditions
[14] = Day 9 after inoculation, selected in CD-Fusion w/o Pro + 0.05 mM DHP, non-selecting conditions
[15] = Day 9 after inoculation, selected in CD-Fusion w/o Pro + 0.1 mM DHP, non-selecting conditions
[16] = Day 9 after inoculation, selected in CD-Fusion w/o Pro + 0.2 mM DHP, non-selecting conditions
[17] = Day 9 after inoculation, selected in CD-Fusion w/o Pro + 0.4 mM DHP, non-selecting conditions

O=C(O)[C@@H]1C=CCN1 [DHP, 3,4-Dehydro-L-Proline]
Viable cell density profile (Day 4 after inoculation, selected in CD-Fusion w/o Pro + 0.2 mM DHP, non-selecting conditions): 5,2E+06 VCD/ml
Viability profile [1]: 99.6%
Viable cell density profile [1]: 6,1E+06 VCD/ml
Viability profile [2]: 96.4%
Viable cell density profile [2]: 9.5E+06 VCD/ml
Viability profile [3]: 97.5%
Viable cell density profile [3]: 1.2E+07 VCD/ml
Viability profile [4]: 98.9%
Viable cell density profile [4]: 6.9E+06 VCD/ml
Viability profile [5]: 96.1%
Viable cell density profile [5]: 1.1E+07 VCD/ml
Productivity profile [6]: 48.6 mg/L
Productivity profile [7]: 166.2 mg/L
Productivity profile [8]: 104.4 mg/L
Productivity profile [9]: 125.8 mg/L
Productivity profile [10]: 87.4 mg/L
Productivity profile [11]: 179.7 mg/L
Productivity profile [12]: 116.4 mg/L
Productivity profile [13]: 133.4 mg/L
Viability profile [6]: 98.6%
Viable cell density profile [6]: 1,0E+07 VCD/ml
Viability profile [7]: 45.3%
Viable cell density profile [7]: 4.6E+06 VCD/ml
Viability profile [8]: 95.6%
Viable cell density profile [8]: 7,9E+06 VCD/ml
Viability profile [9]: 32.2%
Viable cell density profile [9]: 4.0E+06 VCD/ml
Viability profile [10]: 97.4%
Viable cell density profile [10]: 9,6E+06 VCD/ml
Viability profile [11]: 93.2%
Viable cell density profile [11]: 9.1E+06 VCD/ml
Viability profile [12]: 98.1%
Viable cell density profile [12]: 1,1E+07 VCD/ml
Viability profile [13]: 56.1%
Viable cell density profile [13]: 6.9E+06 VCD/ml
Productivity profile [14]: 115.5 mg/L
Productivity profile [15]: 127.1 mg/L
Productivity profile [16]: 153.7 mg/L
Productivity profile [17]: 164.7 mg/L
Viability profile [14]: 19.5%
Viable cell density profile [14]: 2,5E+06 VCD/ml
Viability profile [15]: 5.1%
Viable cell density profile [15]: 6,4E+05 VCD/ml
Viability profile [16]: 18.7%
Viable cell density profile [16]: 2,2E+06 VCD/ml
Viability profile [17]: 21.7%
Viable cell density profile [17]: 3,1E+06 VCD/ml
